From patent publication US6933312B2, “Pyrazole derivatives” (Agouron Pharmaceuticals, Inc., priority 2002, dated 2005) come the findings set out here.

Data set [1] concerns the target T1, purified recombinant HIV-1 reverse transcriptase (Human immunodeficiency virus type 1 group M subtype B, UniProt P04585).
T1 construct: purified recombinant HIV-1 reverse transcriptase (RT, EC, 2.7.7.49); made in house; host or cells: Escherichia coli
The experiment in a line: Inhibition of HIV-1 Reverse Transcriptase Enzyme. It counts as biochemical. The following applies: Poly(rA)-oligo(dT) [3H]-SPA or [3H]-flashplate enzyme assay; 5% final DMSO. An excerpt: The activity of the compounds of the invention as reverse transcriptase inhibitors may be measured using the following assay.
Inhibition of HIV-1 Reverse Transcriptase Enzyme
Using purified recombinant HIV-1 reverse transcriptase (RT, EC, 2.7.7.49) obtained by expression in Escherichia Coli, a 96-well plate assay system is established for assaying a large number of samples using either the Poly(rA)-oligo(dT) Reverse Transcriptase [3H]-SPA enzyme assay system (Amersham NK9020) or the [3H]-flashplate enzyme assay system (NEN—SMP 103) and following the manufacturer's recommendations. The compounds are dissolved in 100% DMSO and diluted with the appropriate buffer to a 5% final DMSO concentration. The inhibitory activity is expressed in percent inhibition relative to DMSO control.

The term melting point denotes the temperature of the solid-liquid transition. For orientation: IC50 means the point on the concentration scale where inhibition reaches its midpoint.

SMILES strings stand for the structures.

`Cc1n[nH]c(CN2Cc3ncccc3C2=O)c1Oc1cc(Cl)cc(C#N)c1`: the melting point fell in the range of 225 to 227 °C. As for `Cc1n[nH]c(CN2Cc3ccccc3C2=O)c1Oc1cc(Cl)cc(C#N)c1` [Example 1, 3-Chloro-5-[3-methyl-5-(1-oxo-1,3-dihydro-isoindol-2ylmethyl)-1H-pyrazol-4-yloxy]-benzonitrile], in data set [1], the IC50 was determined as 76 nM. In turn, `Cc1n[nH]c(CN2Cc3ccccc3C2=O)c1Oc1cc(C#N)cc(C#N)c1` [Example 4, 5-[3-Methyl-5-(1-oxo-1,3-dihydro-isoindol-2-ylmethyl)-1H-pyrazol-4-yloxy]-isophthalonitrile] showed a melting point of 247 to 248 °C. Besides, the IC50 in data set [1] came to 505 nM.
